According to patent publication US9549917B2, “Heterocyclic-substituted benzofuran derivatives and methods of use thereof for the treatment of viral diseases” (priority 2011, dated 2017):

Columns and labels:
HCV replicon genotype 1a = experiment: HCV replicon assay, genotype 1a (cell ELISA for NS3/4A); assay type: cell-based; conditions: Hepatitis C virus, 96 h, read-out: 1a IC50 (nM)
Procedure: (§1) Measurement of inhibition by compounds was performed using the HCV replicon system. Several different replicons encoding different HCV genotypes or mutations were used. In addition, potency measurements were made using different formats of the replicon assay, including different ways of measurements and different plating formats. See Jan M. Vrolijk et al., A replicons-based bioassay for the measurement of interferons in patients with chronic hepatitis C, 110 J. V[…] 201 (2003); Steven S. Carroll et al., Inhibition of Hepatitis C Virus RNA Replication by 2′-Modified Nucleoside Analogs, 278(14) J. BIOLOGICAL CHEMISTRY 11979 (2003). However, the underlying principles are common to all of these determinations, and are outlined below.
(§2) Stable neomycin phosphotransferase encoding replicons-harboring cell lines were used, so all cell lines were maintained under G418 selection prior to the assay. Potency was determined using a cell ELISA assay with an antibody to the replicons encoded NS3/4a protease. See Caterina Trozzi et al., In Vitro Selection and Characterization of Hepatitis C Virus Serine Protease Variants Resistant to an Active-Site Peptide Inhibitor, 77(6) J. Virol. 3669 (2003). To initiate an assay, replicon cells were plated in the presence of a dilution series of test compound in the absence of G418. Typically, the assays were performed in a 96-well plate formate for manual operation, or a 384-well plate format for automated assay. Replicon cells and compound were incubated for 96 hours. At the end of the assay, cells were washed free of media and compound, and the cells were then lysed. RNA was quantified indirectly through detection of replicon-encoded NS3/4A protein levels, through an ELISA-based assay with an antibody specific for NS3/4A. IC50 determinations were calculated as a percentage of a DMSO control by fitting the data to a four-parameter fit function and the data obtained is provided in the table below.
(§3) Data for selected compounds of the present invention was obtained for genotypes 1a and 1b using this method and is provided in the table below: […]

HCV replicon genotype 1b = experiment: HCV replicon assay, genotype 1b (cell ELISA for NS3/4A); assay type: cell-based; conditions: Hepatitis C virus, 96 h, read-out: 1b IC50 (nM)
Procedure: as §1, §2, §3

Row | SMILES | IC50 (HCV replicon genotype 1a) | IC50 (HCV replicon genotype 1b)
1 | CNC(=O)c1c(-c2ccc(F)cc2)oc2cc(N(C)S(C)(=O)=O)c(-c3cnc(OC)c(-c4nc5c(F)cccc5o4)c3)cc12 [Compound 1, 5-(5-(4-fluorobenzo[d]oxazol-2-yl)-6-methoxypyridin-3-yl)-2-(4-fluorophenyl)-N-methyl-6-(N-methylmethylsulfonamido)benzofuran-3-carboxamide] | 0.9 nM | 0.6 nM
2 | CNC(=O)c1c(-c2ccc(F)cc2)oc2cc(N(C)S(C)(=O)=O)c(-c3cncc(-c4nc5c(F)cccc5o4)c3)cc12 [Compound 2] | 0.3 nM | 0.8 nM
3 | CNC(=O)c1c(-c2ccc(F)cc2)oc2cc(N(C)S(C)(=O)=O)c(-c3ccnc(-c4nc5c(F)cccc5o4)c3)cc12 [Compound 9] | 0.6 nM | 1.3 nM
4 | CNC(=O)c1c(-c2ccc(F)cc2)oc2cc(N(C)S(C)(=O)=O)c(-c3cc(-c4nc5c(F)cccc5o4)c(F)cn3)cc12 [Compound 13] | 0.7 nM | 1.4 nM
5 | CNC(=O)c1c(-c2ccc(F)cc2)oc2cc(N(C)S(C)(=O)=O)c(-c3cncc(-c4nc5ccccc5s4)c3)cc12 [Compound 62] | 2 nM | 1.2 nM
6 | CNC(=O)c1c(-c2ccc(F)cc2)oc2cc(N(C)S(C)(=O)=O)c(-c3cncc(-c4nc5c(s4)CCCC5)c3)cc12 [Compound 82] | 0.8 nM | 1.1 nM
7 | CNC(=O)c1c(-c2ccc(F)cc2)oc2cc(N(C)S(C)(=O)=O)c(-c3cnc(OC)c(-c4nc5c(o4)CCCC5(F)F)c3)cc12 [Compound 94] | 0.8 nM | 1.9 nM
8 | CNC(=O)c1c(-c2ccc(F)cc2)oc2cc(N(C)S(C)(=O)=O)c(-c3cc(-c4nc5c(o4)CCCC5(F)F)ccn3)cc12 [Compound 95] | 0.9 nM | 1.1 nM
9 | CNC(=O)c1c(-c2ccc(F)cc2)oc2cc(N(C)S(C)(=O)=O)c(-c3cc(-c4cc5ccccc5[nH]4)ncn3)cc12 [Compound 108, 5-(6-(1H-indol-2-yl)pyrimidin-4-yl)-2-(4-fluorophenyl)-N-methyl-6-(N-methylmethylsulfonamido)benzofuran-3-carboxamide] | 0.7 nM | 1.2 nM
10 | CNC(=O)c1c(-c2ccc(F)cc2)oc2cc(N(C)S(C)(=O)=O)c(-c3ccnc(-c4cc5ccccc5[nH]4)c3)cc12 [Compound 109] | 0.4 nM | 1 nM
11 | CNC(=O)c1c(-c2ccc(F)cc2)oc2cc(N(C)S(C)(=O)=O)c(-c3cncc(-c4cc5ccccc5[nH]4)n3)cc12 [Compound 113] | 0.3 nM | 0.8 nM
12 | CNC(=O)c1c(-c2ccc(F)cc2)oc2cc(N(C)S(C)(=O)=O)c(-c3cc(-c4cc5c(F)cccc5[nH]4)ncn3)cc12 [Compound 119] | 0.7 nM | 1.5 nM
13 | CNC(=O)c1c(-c2ccc(F)cc2)oc2cc(N(C)S(C)(=O)=O)c(-c3cncc(-c4cc5c(F)cccc5[nH]4)n3)cc12 [Compound 121] | 0.8 nM | 1.2 nM
14 | CNC(=O)c1c(-c2ccc(F)cc2)oc2cc(N(C)S(C)(=O)=O)c(-c3cncc(-c4cc5cccc(F)c5[nH]4)n3)cc12 [Compound 139] | 0.8 nM | 0.8 nM
15 | CNC(=O)c1c(-c2ccc(F)cc2)oc2cc(N(C)S(C)(=O)=O)c(-c3cc(-c4cc5ccccc5[nH]4)nc(OC)n3)cc12 [Compound 150, 5-(6-(1H-indol-2-yl)-2-methoxypyrimidin-4-yl)-2-(4-fluorophenyl)-N-methyl-6-(N-methylmethylsulfonamido)benzofuran-3-carboxamide] | 3.2 nM | 5.1 nM
16 | CNC(=O)c1c(-c2ccc(F)cc2)oc2cc(N(C)S(C)(=O)=O)c(-c3cc(-c4cc5ccccc5[nH]4)nc(C#N)n3)cc12 [Compound 151] | 7.7 nM | 3.7 nM
17 | CNC(=O)c1c(-c2ccc(F)cc2)oc2cc(N3CCCC3=O)c(-c3cncc(-c4nc5c(s4)CCCC5(F)F)c3)cc12 [Compound 155, 5-(5-(4,4-difluoro-4,5,6,7-tetrahydrobenzo[d]thiazol-2-yl)pyridin-3-yl)-2-(4-fluorophenyl)-N-methyl-6-(2-oxopyrrolidin-1-yl)benzofuran-3-carboxamide] | 2.9 nM | 1 nM
18 | CNC(=O)c1c(-c2ccc(F)cc2)oc2cc(N(C)S(C)(=O)=O)c(-c3ccc(-c4nc5c(F)cccc5o4)s3)cc12 [Compound 157] | 0.9 nM | 1.5 nM
19 | CNC(=O)c1c(-c2ccc(F)cc2)oc2cc(N(C)S(C)(=O)=O)c(-c3c[nH]c(=O)c(-c4nc5c(F)cccc5o4)c3)cc12 [Compound 159] | 0.8 nM | 1.3 nM
20 | CNC(=O)c1c(-c2ccc(F)cc2)oc2cc(N(CC(F)F)S(C)(=O)=O)c(-c3cc(-c4nc5ncccc5o4)ccn3)cc12 [Compound 170] | 27 nM | 5.1 nM

Row | SMILES | IC50 (HCV replicon genotype 1a) | IC50 (HCV replicon genotype 1b)
21 | CNC(=O)c1c(-c2ccc(F)cc2)oc2cc(N(C)S(C)(=O)=O)c(-c3cncc(-c4cc5ccncc5s4)c3)cc12 [Compound 179] | 8.2 nM | 5.1 nM
22 | CNC(=O)c1c(-c2ccc(F)cc2)oc2cc(N(C)S(C)(=O)=O)c(-c3cncc(-c4ccc5cc(C(F)(F)F)cnc5n4)c3)cc12 [Compound 180] | 5.4 nM | 2.3 nM
23 | CNC(=O)c1c(-c2ccc(F)cc2)oc2cc(N(C)S(C)(=O)=O)c(-c3cncc(-c4nc5c(s4)C4CCC5C4)c3)cc12 (centres unmarked) [Compound 182] | 4.4 nM | 4.3 nM
24 | CNC(=O)c1c(-c2ccc(F)cc2)oc2cc(N(C)S(C)(=O)=O)c(-c3cc(-c4cc5ccccc5[nH]4)c(OC)cn3)cc12 [Compound 202] | 8.4 nM | 7.6 nM
25 | CNC(=O)c1c(-c2ccc(F)cc2)oc2cc(N(C)S(C)(=O)=O)c(-c3ccc(OC)c(-c4cc5cccc(C#N)c5[nH]4)n3)cc12 [Compound 208] | 27 nM | 7.2 nM
26 | CNC(=O)c1c(-c2ccc(F)cc2)oc2cc(N(C)S(C)(=O)=O)c(-c3cc(-c4cc5ccccc5[nH]4)c(OC)nn3)cc12 [Compound 209] | 8.9 nM | 4.7 nM
27 | CNC(=O)c1c(-c2ccc(F)cc2)nn2cc(N(C)S(C)(=O)=O)c(-c3nccc(-c4cc5ccccc5[nH]4)n3)cc12 [Compound 210] | 11 nM | 4.7 nM
28 | CNC(=O)c1c(-c2ccc(F)cc2)oc2cc(N(C)S(C)(=O)=O)c(-c3ccc(OC)c(-c4cc5ncccc5[nH]4)n3)cc12 [Compound 211] | 8.8 nM | 2.5 nM
29 | CNC(=O)c1c(-c2ccc(F)cc2)oc2cc(N(C)S(C)(=O)=O)c(-c3ncc(OC)c(-c4cc5c(C#N)cccc5[nH]4)n3)cc12 [Compound 214] | 33 nM | 9.9 nM
30 | CNC(=O)c1c(-c2ccc(F)cc2)oc2cc(N(C)S(C)(=O)=O)c(-c3cc(-c4cc5c(F)cccc5[nH]4)c(OC)nn3)cc12 [Compound 218] | 4.2 nM | 9.2 nM
31 | CNC(=O)c1c(-c2ccc(F)cc2)oc2cc(N(C)S(C)(=O)=O)c(-c3cc(-c4cc5c(F)cccc5[nH]4)nnc3OC)cc12 [Compound 223] | 2.8 nM | 4.5 nM
32 | CNC(=O)c1c(-c2ccc(F)cc2)oc2cc(N(C)S(C)(=O)=O)c(-c3nc(-c4cc5ccccc5[nH]4)c(OC)cc3OC)cc12 [Compound 224] | 99 nM | 31 nM
33 | CNC(=O)c1c(-c2ccc(F)cc2)oc2cc(N(C)S(C)(=O)=O)c(-c3cnc(OC)c(-c4cc5c(C#N)cccc5[nH]4)n3)cc12 [Compound 225] | 4.7 nM | 7 nM
34 | CNC(=O)c1c(-c2ccc(F)cc2)oc2cc(N(C)S(C)(=O)=O)c(-c3cnc(OC)c(-c4cc5cccc(F)c5[nH]4)n3)cc12 [Compound 226] | 3.4 nM | 7.2 nM
35 | CNC(=O)c1c(-c2ccc(F)cc2)oc2cc(N(C)S(C)(=O)=O)c(-c3cc(-c4cc5c(C#N)cccc5[nH]4)cnn3)cc12 [Compound 230] | 1.4 nM | 1.9 nM
36 | CNC(=O)c1c(-c2ccc(F)cc2)oc2cc(N(C)S(C)(=O)=O)c(-c3ccc(O)c(-c4cc5c(C#N)nccc5[nH]4)n3)cc12 [Compound 231] | 339 nM | 47 nM
37 | CNC(=O)c1c(-c2ccc(F)cc2)oc2cc(N(C)S(C)(=O)=O)c(-c3ccnc(-c4cc5c(C#N)cccc5[nH]4)c3)cc12 [Compound 233] | 0.1 nM | 0.4 nM
38 | CNC(=O)c1c(-c2ccc(F)cc2)oc2cc(N(CCCF)S(C)(=O)=O)c(-c3cncc(-c4cc5ccccc5[nH]4)c3)cc12 [Compound 244] | 2.7 nM | 4.7 nM
39 | CNC(=O)c1c(-c2ccc(F)cc2)oc2cc(N(C)S(C)(=O)=O)c(-c3ccc(OC)c(-c4cc5ccccn5n4)n3)cc12 [Compound 254, 2-(4-fluorophenyl)-5-(5-methoxy-6-(pyrazolo[1,5-a]pyridin-2-yl)pyridin-2-yl)-N-methyl-6-(N-methylmethylsulfonamido)benzofuran-3-carboxamide] | 214 nM | 26 nM
40 | CNC(=O)c1c(-c2ccc(F)cc2)oc2cc(N(C)S(C)(=O)=O)c(-c3ccc(O)c(-c4cc5ccccn5n4)n3)cc12 [Compound 255] | 1450 nM | 104 nM
